This is an account of results in patent US11845984B2, “Methods for obtaining and correcting biological sequence information” (CYGNUS BIOSCIENCES (BEIJING) CO., LTD., priority 2015, dated 2023).

This data set is described as follows: Spectral (optical) properties of fluorophores. The format is physicochemical. As to the method:
Although Me-FAM has similar maximum emission wavelength as TG, the extinction coefficient and quantum yield of Me-FAM are much lower (FIG. 8). At the same time, the broad emission spectrum of Me-FAM greatly overlapped with other fluorophores like Me-HCF, which makes it inapplicable for multi-color sequencing application in future. Instead, the strong fluorescence and narrower spectrum of TG will tackle the problem more easily.
First, the spectrums of TG-dA4P were measured at room temperature. For emission measurement: set excitation wavelength at 460 nm, scan 480 to 600 nm for emission; for absorption measurement: scan 310 to 550 nm. Then CIP and PDE were added and spectrum was recorded sequentially at the same condition.

For `Cc1ccccc1-c1c2ccc(=O)cc-2oc2cc(O)ccc12` [TG, Tokyo Green], the Emission max came to 513 nm, the Excitation max is listed as 490 nm, the Extinction coefficient is on record as 8 × 10^4 and the “Quantum Yield” value worked out at 82%. Further, the fluorescence quantum yield (at 490 nm) stood at 0.82.
